What was measured:
[1] = test system: wheat; test: Test C preemergence; type: in vivo, Triticum aestivum; conditions: for Wheat plant response rating: preemergence; for Plant response rating, Wheat: Preemergence
Method in brief: (§1)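 Greenhouse herbicide screen, 10-day duration. Test chemicals in solvent/surfactant blend were sprayed onto soil at sowing (pre) or onto 2–10 cm seedlings at one to two leaves (post); injury scored visually against controls, 0 no effect to 100 complete control.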

[2] = test system: oat, wild; test: Test C postemergence; type: in vivo, Avena fatua; conditions: 10 days
Method in brief: as §1

[3] = test system: kochia; test: Test C postemergence; type: in vivo, Bassia scoparia; conditions: 10 days
Method in brief: as §1

[4] = test system: barnyardgrass; test: Test D flooded paddy test; type: in vivo, Echinochloa crus-galli; conditions: 250 g ai/ha, applied to paddy water, visual rating after 13 to 14 days, scale 0 to 100 (0 no effect, 100 complete control)
Method in brief: (§2)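 Post-flood water application at the 2-leaf stage; 3 cm flood depth kept constant; visual control rating 0–100 after 13–14 days greenhouse growth.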

[5] = test system: green foxtail; test: Test C preemergence; type: in vivo, Setaria viridis; conditions: for Foxtail, Green plant response rating: preemergence; for Plant response rating, Foxtail, Green: Preemergence
Method in brief: as §1

[6] = test system: oat, wild; test: Test C preemergence; type: in vivo, Avena fatua; conditions: for Oat, Wild plant response rating: preemergence; for Plant response rating, Oat, Wild: Preemergence
Method in brief: as §1

[7] = test system: barnyardgrass; test: Test C postemergence; type: in vivo, Echinochloa crusgalli; conditions: 10 days
Method in brief: as §1

[8] = test system: blackgrass; test: Test C postemergence; type: in vivo, Alopecurus myosuroides; conditions: 10 days
Method in brief: as §1

[9] = test system: ragweed; test: Test C postemergence; type: in vivo, Ambrosia artemisiifolia; conditions: 10 days
Method in brief: as §1

[10] = test system: barnyardgrass; test: Test C preemergence; type: in vivo, Echinochloa crusgalli; conditions: for Barnyardgrass plant response rating: preemergence; for Plant response rating, Barnyardgrass: Preemergence
Method in brief: as §1

[11] = test system: kochia; test: Test C preemergence; type: in vivo, Bassia scoparia; conditions: for Kochia plant response rating: preemergence; for Plant response rating, Kochia: Preemergence
Method in brief: as §1

[12] = test system: pigweed, palmer; test: Test C postemergence; type: in vivo, Amaranthus palmeri; conditions: 10 days
Method in brief: as §1

[13] = test system: wheat; test: Test C postemergence; type: in vivo, Triticum aestivum; conditions: 10 days
Method in brief: as §1

[14] = test system: ragweed; test: Test C preemergence; type: in vivo, Ambrosia artemisiifolia; conditions: for Ragweed plant response rating: preemergence; for Plant response rating, Ragweed: Preemergence
Method in brief: as §1

[15] = test system: soybean; test: Test C preemergence; type: in vivo, Glycine max; conditions: for Soybean plant response rating: preemergence; for Plant response rating, Soybean: Preemergence
Method in brief: as §1

[16] = test system: galium; test: Test C postemergence; type: in vivo, Galium aparine; conditions: 10 days
Method in brief: as §1

[17] = test system: ducksalad; test: Test D flooded paddy test; type: in vivo, Heteranthera limosa; conditions: 250 g ai/ha, applied to paddy water, visual rating after 13 to 14 days, scale 0 to 100 (0 no effect, 100 complete control)
Method in brief: as §2

[18] = test system: corn; test: Test C postemergence; type: in vivo, Zea mays; conditions: 10 days
Method in brief: as §1

[19] = test system: soybean; test: Test C postemergence; type: in vivo, Glycine max; conditions: 10 days
Method in brief: as §1

[20] = test system: ryegrass, Italian; test: Test C preemergence; type: in vivo, Lolium multiflorum; conditions: for Ryegrass, Italian plant response rating: preemergence; for Plant response rating, Ryegrass, Italian: Preemergence
Method in brief: as §1

[21] = test system: sedge, umbrella; test: Test D flooded paddy test; type: in vivo, Cyperus difformis; conditions: 250 g ai/ha, applied to paddy water, visual rating after 13 to 14 days, scale 0 to 100 (0 no effect, 100 complete control)
Method in brief: as §2

[22] = test system: pigweed, palmer; test: Test C preemergence; type: in vivo, Amaranthus palmeri; conditions: for Pigweed, Palmer plant response rating: preemergence; for Plant response rating, Pigweed, Palmer: Preemergence
Method in brief: as §1

[23] = test system: rice; test: Test D flooded paddy test; type: in vivo, Oryza sativa; conditions: 250 g ai/ha, applied to paddy water, visual rating after 13 to 14 days, scale 0 to 100 (0 no effect, 100 complete control)
Method in brief: as §2

[24] = test system: horseweed; test: Test C postemergence; type: in vivo, Erigeron canadensis; conditions: 10 days
Method in brief: as §1

[25] = test system: ryegrass, Italian; test: Test C postemergence; type: in vivo, Lolium multiflorum; conditions: 10 days
Method in brief: as §1

[26] = test system: corn; test: Test C preemergence; type: in vivo, Zea mays; conditions: for Corn plant response rating: preemergence; for Plant response rating, Corn: Preemergence
Method in brief: as §1

[27] = test system: blackgrass; test: Test C preemergence; type: in vivo, Alopecurus myosuroides; conditions: for Blackgrass plant response rating: preemergence; for Plant response rating, Blackgrass: Preemergence
Method in brief: as §1

[28] = test system: green foxtail; test: Test C postemergence; type: in vivo, Setaria viridis; conditions: 10 days
Method in brief: as §1

[29] = 500 g ai/ha, 0 to 100 scale (0 no effect, 100 complete control)
[30] = 125 g ai/ha, 0 to 100 scale, 0 no effect, 100 complete control
[31] = 500 g ai/ha, postemergence, 0 to 100 scale (0 no effect, 100 complete control)
[32] = Postemergence, 125 g ai/ha, 0 to 100 scale (0 no effect, 100 complete control)
[33] = 500 g ai/ha, visual rating after 10 days, 0 to 100 scale (0 no effect, 100 complete control)
[34] = Test C, 125 g ai/ha, 0 to 100 scale (0 no effect, 100 complete control)
[35] = 125 g ai/ha, postemergence, 0 to 100 scale, 0 no effect, 100 complete control
[36] = Postemergence, 500 g ai/ha, visual 0 to 100 scale (0 no effect, 100 complete control)

## CCOC[C@H]1CN(C(=O)c2cc(-n3cnc(C(C)C)n3)cc3c2OCCO3)c2cccc(Cl)c2O1 [Compound 396]
[1]; [29]
  Wheat plant response rating: 30
[1]; [30]
  Plant response rating, Wheat: 0
[2]; [31]
  Plant response rating, Oat, Wild: 40
[2]; [32]
  Plant response rating, Oat, Wild: 20
[3]; [31]
  Plant response rating, Kochia: 100
[3]; [32]
  Plant response rating, Kochia: 80
[4]
  Plant response rating, Barnyardgrass (Flood): 0
[5]; [29]
  Foxtail, Green plant response rating: 100
[5]; [30]
  Plant response rating, Foxtail, Green: 90
[6]; [29]
  Oat, Wild plant response rating: 90
[6]; [30]
  Plant response rating, Oat, Wild: 30
[7]; [31]
  Plant response rating, Barnyardgrass: 50
[7]; [32]
  Plant response rating, Barnyardgrass: 30
[8]; [31]
  Plant response rating, Blackgrass: 70
[8]; [32]
  Plant response rating, Blackgrass: 30
[9]; [32]
  Plant response rating, Ragweed: 70
[10]; [29]
  Barnyardgrass plant response rating: 90
[10]; [30]
  Plant response rating, Barnyardgrass: 50
[11]; [29]
  Kochia plant response rating: 90
[11]; [30]
  Plant response rating, Kochia: 70
[12]; [31]
  Plant response rating, Pigweed, Palmer: 90
[12]; [32]
  Plant response rating, Pigweed, Palmer: 90
[13]; [32]
  Plant response rating, Wheat: 20
[14]; [29]
  Ragweed plant response rating: 90
[14]; [30]
  Plant response rating, Ragweed: 80
[15]; [29]
  Soybean plant response rating: 100
[15]; [30]
  Plant response rating, Soybean: 60
[16]; [31]
  Plant response rating, Galium: 100
[16]; [32]
  Plant response rating, Galium: 100
[17]
  Plant response rating, Ducksalad (Flood): 0
[18]; [31]
  Plant response rating, Corn: 60
[18]; [32]
  Plant response rating, Corn: 50
[19]; [32]
  Plant response rating, Soybean: 100
[20]; [29]
  Ryegrass, Italian plant response rating: 90
[20]; [30]
  Plant response rating, Ryegrass, Italian: 60
[21]
  Plant response rating, Sedge, Umbrella (Flood): 0
[22]; [29]
  Pigweed, Palmer plant response rating: 100
[22]; [30]
  Plant response rating, Pigweed, Palmer: 100
[23]
  Plant response rating, Rice (Flood): 0
[24]; [31]
  Plant response rating, Horseweed: 60
[24]; [32]
  Plant response rating, Horseweed: 0
[25]; [32]
  Plant response rating, Ryegrass, Italian: 0
[26]; [29]
  Corn plant response rating: 40
[26]; [30]
  Plant response rating, Corn: 10
[27]; [29]
  Blackgrass plant response rating: 40
[27]; [30]
  Plant response rating, Blackgrass: 20
[28]; [31]
  Plant response rating, Foxtail, Green: 80
[28]; [32]
  Plant response rating, Foxtail, Green: 60

## C[C@H]1CN(C(=O)c2cc(-n3cncn3)cc3c2OCCO3)c2cccc(Cl)c2O1 [Compound 153]
[1]; [33]
  Plant response rating, Wheat: 90
[1]; [34]
  Wheat plant response rating: 20
[2]; [35]
  Plant response rating, Oat, Wild: 50
[2]; [36]
  Plant response rating, Oat, Wild: 70
[3]; [35]
  Plant response rating, Kochia: 60
[3]; [36]
  Plant response rating, Kochia: 90
[4]
  Plant response rating, Barnyardgrass (Flood): 35
[5]; [33]
  Plant response rating, Foxtail, Green: 100
[5]; [34]
  Foxtail, Green plant response rating: 100
[6]; [33]
  Plant response rating, Oat, Wild: 80
[6]; [34]
  Oat, Wild plant response rating: 40
[7]; [35]
  Plant response rating, Barnyardgrass: 90
[7]; [36]
  Plant response rating, Barnyardgrass: 90
[8]; [35]
  Plant response rating, Blackgrass: 90
[8]; [36]
  Plant response rating, Blackgrass: 90
[9]; [35]
  Plant response rating, Ragweed: 80
[9]; [36]
  Plant response rating, Ragweed: 100
[10]; 125 g ai/ha, 0 to 100 scale (0 no effect, 100 complete control)
  Barnyardgrass plant response rating: 80
[10]; [33]
  Plant response rating, Barnyardgrass: 100
[11]; [33]
  Plant response rating, Kochia: 60
[11]; [34]
  Kochia plant response rating: 0
[12]; [35]
  Plant response rating, Pigweed, Palmer: 70
[12]; [36]
  Plant response rating, Pigweed, Palmer: 100
[13]; [35]
  Plant response rating, Wheat: 90
[13]; [36]
  Plant response rating, Wheat: 90
[14]; [33]
  Plant response rating, Ragweed: 100
[14]; [34]
  Ragweed plant response rating: 80
[15]; [33]
  Plant response rating, Soybean: 100
[15]; [34]
  Soybean plant response rating: 100
[16]; [35]
  Plant response rating, Galium: 90
[16]; [36]
  Plant response rating, Galium: 100
[17]
  Plant response rating, Ducksalad (Flood): 70
[18]; [35]
  Plant response rating, Corn: 80
[18]; [36]
  Plant response rating, Corn: 90
[19]; [35]
  Plant response rating, Soybean: 100
[19]; [36]
  Plant response rating, Soybean: 100
[20]; [33]
  Plant response rating, Ryegrass, Italian: 90
[20]; [34]
  Ryegrass, Italian plant response rating: 90
[21]
  Plant response rating, Sedge, Umbrella (Flood): 98
[22]; [33]
  Plant response rating, Pigweed, Palmer: 100
[22]; [34]
  Pigweed, Palmer plant response rating: 100
[23]
  Plant response rating, Rice (Flood): 15
[24]; [35]
  Plant response rating, Horseweed: 60
[24]; [36]
  Plant response rating, Horseweed: 50
[25]; [35]
  Plant response rating, Ryegrass, Italian: 90
[25]; [36]
  Plant response rating, Ryegrass, Italian: 100
[26]; [33]
  Plant response rating, Corn: 30
[26]; [34]
  Corn plant response rating: 10
[27]; [33]
  Plant response rating, Blackgrass: 60
[27]; [34]
  Blackgrass plant response rating: 20
[28]; [35]
  Plant response rating, Foxtail, Green: 90
[28]; [36]
  Plant response rating, Foxtail, Green: 90
